Laboratory results published in patent publication EP0619297B1, “Fungicides for the control of take-all desease of plants” (MONSANTO COMPANY, priority 1993, dated 1994).
Values after ≈ are worked out from the molar mass of the structure shown. Where two headings read alike, the source gives them in different places.

Tests used:
[1] = test system: Gaeumannomyces graminis var. tritici (Ggt); test: In vitro assay: mycelial growth on minimal media agar plates (Percent Inhibition; IC50); assay type: cell-based; conditions: for inhibition at 0.1 ppm: read-out: In vitro(ppm) 0.1, Percent Inhibition; for inhibition at 1 ppm: read-out: In vitro(ppm) 1, Percent Inhibition; for inhibition at 10 ppm: read-out: In vitro(ppm) 10, Percent Inhibition; for IC50: interpolated from percent inhibition at 1, 0.1, 0.01, 0.001 and 0.0001 ppm
Experimental: The test compounds (0.25 mL of an appropriate stock solution in acetone) are incorporated into 25 mL minimal media agar [prepared by autoclaving a solution of 17.5 g Czapek Dox broth (Difco), 7.5 g purified agar or Bacto-agar (Difco), and 500 mL distilled/deionized water, and then adding 50 µL of 1 mg/mL thiamine hydrochloride and 50 µL of 1 mg/mL biotin in 5% ethanol] and plates are prepared.
Each plate is inoculated by placing in a triangular shape three 4-mm plugs of Gaeumannomyces graminis var. tritici (Ggt) grown on the minimal media agar described above. The plates are incubated in the dark at 19 - 20 °C for 4 to 5 days. The growth of the fungus is measured as the diameter of the mycelial growth. The result is expressed as Percent Inhibition, calculated as [1 - [(mm growth on treated plate - 4)/(mm growth on control plate - 4)]] x 100.
To determine IC5O values, an in vitro assay was run on each compound at the concentrations of 1, 0.1, 0.01, 0.001, and 0.0001 ppm. The percent inhibition was calculated for each concentration using the equation described in the in vitro assay under the section on Biological Assays. Using the two ordered pairs of (concentration, % inhibition) that bracket 50% inhibition of fungal growth, the concentration for 50% inhibition is calculated from the following equation. IC50 = [(50-I2 )C1 + (I1 -50)C2 ]/(I1 -I2 ), [formula] where C1 = 10C2.

Ggt = test: In vivo assay: control of Ggt on wheat in 3-inch pots with infested soil, rated after four weeks;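 on In vivo(ppm) 0.1, percent disease control: rate is mg active ingredient per pot in 3 mL solution not ppm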;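 on In vivo(ppm) 0.5, percent disease control: rate is mg active ingredient per pot in 3 mL solution not ppm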; parameters: species or system Gaeumannomyces graminis var. tritici; conditions: Gaeumannomyces graminis, 672 h; for pest or weed control at 0.02 mg/pot: read-out: In vivo(ppm) 0.02mg/pot, percent disease control; for pest or weed control at 0.1 mg/pot: read-out: In vivo(ppm) 0.1, percent disease control; for pest or weed control at 0.5 mg/pot: read-out: In vivo(ppm) 0.5, percent disease control
Experimental: Compounds are tested for control of Ggt on 'Bergen' or 'Anza' varieties of wheat grown in 3-inch square pots containing soil infested with Ggt. The infestation is accomplished by mixing the soil with an inoculum prepared by growing Ggt on 1/4 strength potato dextrose agar (4.875 g potato dextrose agar, 5.0 g Bacto agar, 500 mL distilled, deionized water) in plates and using plugs from the plates to infest sterile oats (400 cc whole oats, 350 mL deionized water, autoclaved). After a one-month incubation period at room temperature, the oats are dried and mixed with the soil at 4% v/v. Four wheat seeds are placed on top of the soil in each pot. […] Five pots are used for each treatment level and the controls, which are untreated, inoculated and non-inoculated pots. After one hour drying time, the seeds are covered with more of the appropriate soil and a layer of vermiculite. The pots are placed in a growth chamber and watered each day. After four weeks, each pot is evaluated for evidence of disease by examination of the seminal roots of each plant under a dissecting microscope. A 0 to 5 rating scale having the following meanings is used: • 0 = no runner hyphae or lesions present • 1 = runner hyphae and a few small lesions present on <10% of root system • 2 = runner hyphae and small lesions present on 10 - 25% of root system • 3 = runner hyphae and lesions present on 25 - 50% of root system • 4 = runner hyphae and many, large, coalescing lesions on >50% of root system • 5 = root system and culm completely inundated with lesions and runner hyphae
From each set of five replicates a high or low score may be eliminated to assure the best representative scores are used to calculate a replicate mean by averaging the remaining scores. This mean score is then compared to the untreated control score and a percent disease control is calculated.

[2] = 0.1 ppm in agar, 19 - 20 °C, 4 to 5 days
[3] = 1 ppm in agar, 19 - 20 °C, 4 to 5 days
[4] = 10 ppm in agar, 19 - 20 °C, 4 to 5 days
[5] = rate 0.02mg/pot, wheat, soil infested with Ggt, after four weeks
[6] = rate 0.1 (head prints ppm, head line ends mg/pot), wheat, soil infested with Ggt, after four weeks, N = no control
[7] = rate 0.5 (head prints ppm, head line ends mg/pot), wheat, soil infested with Ggt, after four weeks, N = no control

SMILES | inhibition at 0.1 ppm [1, 2] | inhibition at 1 ppm [1, 3] | inhibition at 10 ppm [1, 4] | IC50 [1] | pest or weed control at 0.02 mg/pot (Ggt; [5]) | pest or weed control at 0.1 mg/pot (Ggt; [6]) | pest or weed control at 0.5 mg/pot (Ggt; [7]) | inhibition at 0.1 ppm [1] | inhibition at 1 ppm [1] | inhibition at 10 ppm [1] | pest or weed control at 0.02 mg/pot (Ggt; soil) | pest or weed control at 0.1 mg/pot (Ggt; soil) | pest or weed control at 0.5 mg/pot (Ggt; soil)
CCCNC(=O)c1c(NC(C)(C)C)ccc2ccccc12 [Example 21, N-propyl 2-[(1,1-dimethylethyl)amino]-1-naphthamide] | 95% | 97% | 97% | 8.5 ng/mL (≈ 0.0299 µM) | 35% | 60% | 78% | – | – | – | – | – | –
CCNC(=O)c1c(NC(C)(C)CC)ccc2ccccc12 [Example 22, N-ethyl 2-[(1,1-dimethylpropyl)amino]-1-naphthamide] | 95% | 98% | 98% | 9.18 ng/mL (≈ 0.0323 µM) | 11% | 41% | 70% | – | – | – | – | – | –
CCNC(=O)c1c(NC(C)(CC)CC)ccc2ccccc12 [Example 23, N-ethyl 2-[(1,1-diethylethyl)amino]-1-naphthamide] | 21% | 21% | 43% | 6.62 ng/mL (≈ 0.0222 µM) | 50% | 65% | 85% | – | – | – | – | – | –
CCCNC(=O)c1c(NC(C)(CC)CC)ccc2ccccc12 [Example 24, N-propyl 2-[(1,1-diethylethyl)amino]-1-naphthamide] | 95% | 95% | 100% | 0.814 ng/mL (≈ 0.00261 µM) | 32% | 38% | 76% | – | – | – | – | – | –
CCCNC(=O)c1c(NC(C)(C)CC)ccc2ccccc12 [Example 25, N-propyl 2-[(1,1-dimethylpropyl)amino]-1-naphthamide] | 95% | 100% | 100% | 1 ng/mL (≈ 0.00335 µM) | 17% | 57% | 78% | – | – | – | – | – | –
CCNC(=O)c1c(OC(C)(CC)CC)ccc2ccccc12 [Example 28, N-ethyl 2-[(1,1-diethylethyl)oxy]-1-naphthamide] | 74% | 96% | 96% | – | 19% | 40% | 78% | – | – | – | – | – | –
CCCNC(=O)c1c(OC(C)(CC)CC)ccc2ccccc12 [Example 31, N-propyl 2-[(1,1-diethylethyl)oxy]-1-naphthamide] | 7% | 17% | 98% | – | 0% | 0% | 3% | – | – | – | – | – | –
CCNC(=O)c1c(OC(CC)(CC)CC)ccc2ccccc12 [Example 32, N-ethyl 2-[(1,1-diethylpropyl)oxy]-1-naphthamide] | 87% | 97% | 97% | 42.2 ng/mL (≈ 0.135 µM) | 15% | 35% | 58% | – | – | – | – | – | –
C=CCNC(=O)c1c(OC(CC)(CC)CC)ccc2ccccc12 [Example 33, N-allyl 2-[(1,1-diethylpropyl)oxy]-1-naphthamide] | 97% | 100% | 100% | 6.47 ng/mL (≈ 0.0199 µM) | 19% | 45% | 59% | – | – | – | – | – | –
CCCN(CCC)C(=O)c1c(OC(CC)(CC)CC)ccc2ccccc12 [Example 35, N,N-dipropyl 2-[(1,1-diethylpropyl)oxy]-1-naphthamide] | 0% | 19% | 95% | – | 0% | 0% | 1% | – | – | – | – | – | –
CCNC(=O)c1c(OC2(C)CCCC2)ccc2ccccc12 [Example 36, N-ethyl 2-[(1-methyl-1-cyclopentyl)oxy]-1-naphthamide] | 76% | 98% | 100% | – | 0% | 0% | 60% | – | – | – | – | – | –
C=CCNC(=O)c1c(OC2(C)CCCCC2)ccc2ccccc12 [Example 39, N-allyl 2-[(1-methyl-1-cyclohexyl)oxy]-1-naphthamide] | 57% | 96% | 96% | – | 0% | 11% | 28% | – | – | – | – | – | –
CCNC(=O)c1c([Si](C)(C)C)ccc2sccc12 [Example 41, N-ethyl 5-trimethylsilyl benzothiophene-4-carboxamide] | – | – | – | – | – | – | – | 98% | 98% | 100% | 75% | 99% | 100%
CCNC(=O)c1c([Si](C)(C)C)ccc2occc12 [Example 42, N-ethyl 5-trimethylsilyl benzofuran-4-carboxamide] | – | – | – | – | – | – | – | 90% | 98% | 100% | 68% | 87% | 91%
CCNC(=O)c1c([Si](C)(C)C)ccc2ccsc12 [Example 43, N-ethyl 6-trimethylsilyl benzothiophene-7-carboxamide] | – | – | – | – | – | – | – | 98% | 100% | 100% | 50% | 79% | 88%
